Test results: patent publication US20090227619A1, “Harmine derivatives, intermediates used in their preparations, preparation processes and use therefo” (priority 2003, published 2009)
Like-named read-outs stand apart in the source and are kept apart here.

Key:
[1] = in vivo; details: both, mouse, ip
[2] = tested on: CT-DNA; experiment: UV absorption spectrum method with CT-DNA; type: binding; details: CT-DNA 40 ug/ml, compound 20 uM, 37° C. for 2 h, OD at 260 nm
Protocol: Compounds to be tested (20 uM) were added into the PE buffer solution, and its scan curve was identified by the spectrograph at a wavelength of from 200 to 400 nm. CT-DNA (40 ug/ml) and compounds to be tested (20 uM) were added into the PE buffer solution. The mixture was cultured at 37° C. for 2 h, and its scan curve was identified by the UV spectrograph at a wavelength of from 200 to 400 nm. […] After that, the OD value at 260 nm of the scan curve of the medicaments tested and that of the CT-DNA mixture OD value at 260 nm of the scan curve were calculated and compared to determine the influences of the medicaments tested on the UV absorption spectrum of the DNA molecules.

[3] = tested on: CT-DNA; experiment: DNA thermal denaturation, determination of ΔTm; type: binding; details: 20 uM compound, Tm of CT-DNA alone 61° C.
Summary of the method: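 CT-DNA at 15 ug/ml in PE buffer (1 mM Na2HPO4, 0.1 mM EDTA, pH 7.6), heated at 0.5° C./min from 25 to 95° C. Tm taken as hyperchromic transition mid-point; ΔTm = Tm of drug-DNA complex minus Tm of DNA alone, mean of three runs.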

[4] = tested on: Lewis lung cancer; details: Lewis lung cancer; for Body weight of the animals, end, First time / Body weight of the animals, end, Second time: ip × 10qd;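 on all read-outs here: mice implanted subcutaneously in the axilla with Lewis lung tumor cells, treated starting the following day, killed roughly three weeks after implantation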
[5] = tested on: Hela; experiment: In vitro cytotoxicity, IC50 by MTT method, Hela; type: cell-based; details: Homo sapiens; Hela cell strain; read-out: IC50 Hela
Summary of the method: (§1)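 MTT viability, 48 h exposure: cells 10^5/ml in RPMI1640 + 10% FBS, 37 °C/5% CO2; MTT 4 h, DMSO solubilisation, A490.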

[6] = tested on: PLA-801; experiment: In vitro cytotoxicity, IC50 by MTT method, PLA-801; type: cell-based; details: PLA-801 cell strain; read-out: IC50 PLA-801
Summary of the method: as §1

[7] = tested on: Kunming mice; details: single i.p.
[8] = tested on: HepG2; experiment: In vitro cytotoxicity, IC50 by MTT method, HepG2; type: cell-based, human; details: Homo sapiens; HepG2 cell strain; read-out: IC50 HepG2
Summary of the method: as §1

[9] = tested on: S180 sarcoma; details: S180 sarcoma; for Body weight of the animals, beginning, First time / Body weight of the animals, end, First time / Inhibition rate, First time / Weight of the tumor X ± SD, First time / Body weight of the animals, beginning, Second time / Body weight of the animals, end, Second time / Inhibition rate, Second time: ip × 10qd
[10] = tested on: Bel-7402; experiment: In vitro cytotoxicity, IC50 by MTT method, Bel-7402; type: cell-based; details: Homo sapiens, Bel-7402; Bel7402 cell strain; read-out: IC50 Bel7402
Summary of the method: as §1

[11] = tested on: NIH3T3; experiment: In vitro cytotoxicity, IC50 by MTT method, NIH3T3; type: cell-based; details: Mus musculus; NIH3T3 cell strain; read-out: IC50 NIH3T3
Summary of the method: as §1

[12] = tested on: Lovo; experiment: In vitro cytotoxicity, IC50 by MTT method, Lovo; type: cell-based; details: Homo sapiens; Lovo cell strain; read-out: IC50 Lovo
Summary of the method: as §1

[13] = tested on: BGC-823; experiment: In vitro cytotoxicity, IC50 by MTT method, BGC-823; type: cell-based; details: Homo sapiens, BGC-823; BGC823 cell strain; read-out: IC50 BGC823
Summary of the method: as §1
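Wherever Death rate is given: acute toxicity in Kunming mice grouped by sex, one intraperitoneal dose at five graded levels in Tween-80 plus 0.5% CMC-Na, deaths monitored over two weeks.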
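Wherever MTD is given: acute toxicity in Kunming mice grouped by sex, one intraperitoneal dose at five graded levels in Tween-80 plus 0.5% CMC-Na, deaths monitored over two weeks.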

## CCCCn1c2ccccc2c2cc(C(=O)O)ncc21 [Compound 36, 9-butyl-β-carboline-3-carboxylic acid]
[1]
  MTD at 2 weeks: > 300 mg/kg
[2]
  Influence on the UV absorption of DNA: increase the UV absorption of DNA
[3]; CT-DNA 15 ug/ml, PE buffer pH 7.6
  ΔTm: −1.5 °C
[3]; CT-DNA thermal denaturation
  ΔTm: −1.5 °C
[4]; Dosage 50 (mg/ml)
  Body weight of the animals, end, First time: 25.6 g
  Body weight of the animals, end, Second time: 25.3 g
[4]; Dosage 50, ip × 10qd
  Body weight of the animals, beginning, First time: 18.8 g
  Inhibition rate, First time: 31.74%
  Weight of the tumor X ± SD, First time: 2.00 ± 0.28 g
  Body weight of the animals, beginning, Second time: 20.1 g
  Inhibition rate, Second time: 31.69%
  Weight of the tumor X ± SD, Second time: 1.66 ± 0.17 g
[4]; Dosage 100 (mg/ml)
  Body weight of the animals, end, First time: 25.2 g
  Body weight of the animals, end, Second time: 25.0 g
[4]; Dosage 100, ip × 10qd
  Body weight of the animals, beginning, First time: 19.3 g
  Inhibition rate, First time: 41.98%
  Weight of the tumor X ± SD, First time: 1.70 ± 0.17 g
  Body weight of the animals, beginning, Second time: 20.1 g
  Inhibition rate, Second time: 46.91%
  Weight of the tumor X ± SD, Second time: 1.29 ± 0.13 g
[4]; comparison table 43, in vivo
  Inhibition rate (%) Lewis cancer: 46.91%
[5]
  IC50: 60 µM
[6]
  IC50: 90 µM
[7]; 50% male 50% female mice, 240 mg/kg
  Death rate: 0
[7]; 50% male 50% female mice, 300 mg/kg
  Death rate: 30
[7]; female mice, 240 mg/kg
  Death rate: 0
[7]; female mice, 300 mg/kg
  Death rate: 40
[7]; male mice, 240 mg/kg
  Death rate: 0
[7]; male mice, 300 mg/kg
  Death rate: 20
[8]
  IC50: 170 µM
[9]; Dosage 50 (mg/ml)
  Body weight of the animals, beginning, First time: 19.1 g
  Body weight of the animals, end, First time: 24.9 g
  Inhibition rate, First time: 29.96%
  Weight of the tumor X ± SD, First time: 1.87 ± 0.16 g
  Body weight of the animals, beginning, Second time: 18.3 g
  Body weight of the animals, end, Second time: 25.3 g
  Inhibition rate, Second time: 31.11%
[9]; Dosage 50, ip × 10qd
  Weight of the tumor X ± SD, Second time: 1.86 ± 0.28 g
[9]; Dosage 100 (mg/ml)
  Body weight of the animals, beginning, First time: 19.0 g
  Body weight of the animals, end, First time: 24.5 g
  Inhibition rate, First time: 43.07%
  Weight of the tumor X ± SD, First time: 1.52 ± 0.15 g
  Body weight of the animals, beginning, Second time: 18.7 g
  Body weight of the animals, end, Second time: 25.5 g
  Inhibition rate, Second time: 40.00%
[9]; Dosage 100, ip × 10qd
  Weight of the tumor X ± SD, Second time: 1.62 ± 0.12 g
[9]; comparison table 43, in vivo
  Inhibition rate (%) S180 sarcomata: 43.07%
[10]
  IC50: 90 µM
[11]
  IC50: 20 µM
[12]
  IC50: 10 µM
[13]
  IC50: 120 µM
